In PubChem BioAssay AID1159564 (GlaxoSmithKline (GSK), 2015):
Activity calls are given as the source filed them. No rule for the calls is given here.

Tested on: L. donovani-infected THP-1 macrophages, intracellular amastigote imaging
Assay: intracellular L. donovani amastigote inhibition, imaging, THP-1 host macrophages, host toxicity (AID 1159564)
[1] = measured here: THP-1 host cell toxicity
[2] = measured here: amastigotes per macrophage

Structure (SMILES) | IC50 | IC50 [1] [µM] | IC50 [2] [µM]
Cc1ccc(C)c(CN2C(=O)NC3(CCc4ccccc43)C2=O)c1 (centres undefined) | > 50 µM (inactive) | > 50 | 16
CCc1cccc(CC)c1-n1c(SCC(=O)N2CC(=O)Nc3ccccc32)nnc1-c1cccnc1 | > 50 µM (inactive) | > 50 | > 50
CCC(=O)Nc1ccc(-c2nc3ccc(Cl)cc3[nH]2)cc1 | > 50 µM (inactive) | > 50 | > 50
CC(=O)Nc1nc(-c2cc(C)ccc2C)c(C)s1 | > 50 µM (inactive) | > 50 | 32
CCCc1nc2nc(N)nc(N)c2cc1CC | 40 µM | > 50 | 40
O=c1ccc2ccc(F)c3c2n1C[C@H]3CN1CCN(CC(O)c2cc3c(cn2)OCS3)CC1 (some centres undefined) | > 50 µM (inactive) | > 50 | > 50
CC(c1ccccn1)N(C)Cc1nc2ccccc2n1C(C)C (centres undefined) | 3.2 µM | 16 | 2
N#Cc1cccc(Cc2cc(Nc3cc(C4CC4)[nH]n3)nc(N3CC[C@H]3C(N)=O)n2)c1 | 0.2 µM | 0.032 | 0.079
O=C1NCCn2ccc(Nc3nc(NC4CCC(O)CC4)ncc3Cl)c21 (centres undefined) | 1 µM | 0.4 | 0.63
O=C1CN(C(=O)c2cccc(Nc3ncc(-c4ccc5c(c4)OCO5)cn3)c2)CCN1 | 5 µM | 63 | 2
O=C(c1ccc(OCCCc2cnc[nH]2)cc1)C1CC1 | > 50 µM (inactive) | > 50 | 7.9
CS(=O)(=O)c1ccccc1C(=O)N(Cc1ccccc1)c1ccccc1 | > 50 µM (inactive) | > 50 | 16
Cc1ccc(NC(=O)c2ccnc(N3CCCC3)c2)cc1-c1ccsc1C(N)=O | > 50 µM (inactive) | > 50 | > 50
Cc1ccccc1NS(=O)(=O)c1ccc2[nH]cc(C(=O)NC3CCCCC3)c(=O)c2c1 | 40 µM | 32 | 40
COc1ccc(C2CC(c3ccccc3Cl)=NN2C(=O)CNC(=O)C2CCC2)cc1 (centres undefined) | > 50 µM (inactive) | > 50 | > 50
Cc1cc(C)cc(NS(=O)(=O)c2cc(-c3cc(C)[nH]n3)ccc2C)c1 | 7.9 µM | – | 3.2
COc1ccc(OC)c(NC(=O)c2ccc([N+](=O)[O-])o2)c1 | 32 µM | 20 | 16
CCCN(Cc1ccc(OC)c(OC)c1)Cc1cc(=O)c2c(C)cc(C)cc2[nH]1 | 25 µM | 5 | 20

Structure (SMILES) | IC50 | IC50 [1] [µM] | IC50 [2] [µM]
Nc1nc(-c2ccccc2)cc(-c2nc3ncccc3[nH]2)n1 | 2.5 µM | > 50 | 2.5
NS(=O)(=O)c1ccc(Nc2nccc(-c3cnn4ncccc34)n2)cc1 | 2 µM | 0.25 | 1
O=c1[nH]ccc2ccc(-c3ccncc3)cc12 | > 50 µM (inactive) | 40 | 20
Cc1nc(-c2nc(NCc3ccc(Cl)cc3)c3cccnc3c2O)n[nH]1 | 0.5 µM | 6.3 | 0.5
O=C(NCC1CCCCC1)c1cnns1 | > 50 µM (inactive) | > 50 | 10
O=C(Cc1ccccc1)Nc1ccccc1C(=O)Nc1nccs1 | > 50 µM (inactive) | > 50 | > 50
Cc1cccc(NS(=O)(=O)c2ccc3c(c2)C(=O)c2cc(S(=O)(=O)Nc4cccc(C)c4C)ccc2-3)c1C | > 50 µM (inactive) | > 50 | > 50
NCc1csc(Nc2cc(Oc3ccccc3)ncn2)n1 | 25 µM | > 50 | 25
N#Cc1c(Oc2cccc(Cl)c2)cccc1[N+](=O)[O-] | 10 µM | > 50 | 7.9
Cc1ccc2c(c1)-c1onc(C(=O)N3CCCCC3c3cccnc3)c1CO2 (centres undefined) | > 50 µM (inactive) | 40 | 40
COc1cnc2ccc(=O)n(CCN3CCC(NC(=O)Cc4ccc(Cl)c(Cl)c4)CC3)c2c1 | 40 µM | 25 | 5
COc1ccc(C(=O)Nc2cc(C(F)(F)F)ccc2N2CCOCC2)c(OC)c1 | 10 µM | 13 | 7.9
C=CCOCC1Cn2nc([N+](=O)[O-])nc2O1 (centres undefined) | > 50 µM (inactive) | > 50 | > 50
CC(C)(C)Nc1nc(Nc2ccc3c(c2)CS(=O)(=O)C3)nc2[nH]ccc12 | 6.3 µM | 20 | 5
CCc1nn(-c2ncc(F)c(NC(C)C)n2)c(N)c1C1CCCCC1 | 3.2 µM | 16 | 1.6
COc1ccc(-c2nc3ccncc3c(=O)n2CCOc2ccccc2)cc1 | > 50 µM (inactive) | > 50 | > 50
c1cc(-c2ncc(-c3ccn[nH]3)s2)ccn1 | > 50 µM (inactive) | > 50 | 10
